Earlier results in patent US20260355228A1, “TREATMENT OF FAMILIAL ADENOMATOUS POLYOPSIS USING A 13-MEMBERED MACROLIDE” (ZIKANI THERAPEUTICS, INC., priority 2022, published 2026).

How the values were obtained:
[1] = tested on: APC gene nonsense mutations in colorectal cancer cell lines; conditions: colorectal cancer cell lines [23, 24]
[2] = tested on: human colorectal xenografts possessing APC nonsense mutations; conditions: xenografts possessing APC nonsense mutations [23, 24]
[3] = tested on: mouse model of FAP; conditions: mouse model of FAP [23, 24]
[4] = tested on: FAP patients harboring APC nonsense mutations; conditions: clinical study, FAP patients [25]
[5] = tested on: APC (SW1417 colon carcinoma cells); conditions: SW1417 cells [23]
[6] = tested on: APC gene nonsense mutations in in vivo colon carcinoma models; conditions: in vivo colon carcinoma models [23]
[7] = tested on: APC L360X stop codon; conditions: luciferase based reporter vector [40]

Row | Compound | suppression of nonsense mutations / translation termination in the APC gene [1] | in vivo growth of human colorectal xenografts [2] | number of intestinal polyps [3] | adenoma burden [4] | read-through of the nonsense mutation leading to synthesis of full-length, active APC protein [5] | suppression of translation termination generated by nonsense mutations in the APC gene [6] | susceptibility of the L360X stop codon to read-through [7]
1 | CC[C@H]1OC(=O)[C@H](C)[C@@H](O[C@H]2C[C@@](C)(OC)[C@@H](O)[C@H](C)O2)[C@H](C)[C@@H](O[C@@H]2O[C@H](C)C[C@H](N(C)C)[C@H]2O)[C@](C)(O)C[C@@H](C)C(=O)[C@H](C)[C@@H](O)[C@]1(C)O [erythromycin] | suppressed nonsense mutations in the APC gene in human colon carcinoma cells | inhibited the in vivo growth of human colorectal xenografts | reduced the number of intestinal polyps | decrease in adenoma burden |  |  | 
2 | CC[C@H]1OC(=O)C[C@@H](O)[C@H](C)[C@@H](O[C@@H]2O[C@H](C)[C@@H](O[C@H]3C[C@@](C)(O)[C@@H](O)[C@H](C)O3)[C@H](N(C)C)[C@H]2O)[C@@H](CC=O)C[C@@H](C)C(=O)/C=C/C(C)=C/[C@@H]1CO[C@@H]1O[C@H](C)[C@@H](O)[C@@H](OC)[C@H]1OC [tylosin] | can suppress translation termination generated by nonsense mutations in the APC gene |  |  |  | low level of full-length, active APC protein | can suppress translation termination generated by nonsense mutations in the APC gene | 
3 | gentamicin | suppressed nonsense mutations in the APC gene in human colon carcinoma cells | inhibited the in vivo growth of human colorectal xenografts | reduced the number of intestinal polyps |  |  |  | most susceptible
